Source: patent US20210059997A1, “PROPHYLACTIC AGENT AND/OR THERAPEUTIC AGENT FOR CATARACT, MEDICINAL COMPOSITION FOR PREVENTING AND/OR TREATING CATARACT, USE OF PPAR ACTIVATOR FOR PRODUCING SAME, AND EYEDROPS” (UNIVERSITY OF FUKUI, priority 2017, published 2021)

Tests used:
Parameters in all cases: species or system SD rat
[1] = test system: isolated crystalline lenses; experiment: Ex vivo study: ex-vivo diabetic cataract models using galactose-containing media (microscopy); conditions: 800 μM PPAR activator added after 3 days in 30 mM galactose M199 medium; observed 3 days after restart of culture (Day 6)
Experimental: In Example 1, effects of each agent were tested with use of ex-vivo diabetic cataract models using galactose-containing media.
(§1) The crystalline lenses were isolated from the right and left eyeballs of a 6-week-old SD rat (available from Sankyo Labo Service Corporation).
The isolated crystalline lenses were cultured with use of a medium obtained by adding 30 mM of galactose to an M199 medium (available from SIGMA). After that, the crystalline lenses were cultured with use of a medium obtained by adding 30 mM of galactose and 800 μM of a PPAR activator (specifically, bezafibrate or fenofibrate) to an M199 medium.
(§2) Specific points in time at which observation was carried out are as follows. Note that the crystalline lenses were cultured with use of an incubator, the internal temperature of which was maintained at 37° C.
First, 3 days after the start of the culture of the crystalline lenses using the medium obtained by adding 30 mM of galactose to an M199 medium (available from SIGMA), the crystalline lenses were removed from the medium and observed by microscopy under a SZX12 microscope (available from Olympas).
After the microscopy, a PPAR activator was added to the medium, and the culture of the crystalline lenses was restarted. […]

[2] = test system: isolated crystalline lenses; experiment: Quantitative ex vivo study: ex-vivo diabetic cataract models using galactose-containing media, percentage of opacity by image analysis; conditions: for Percentage of opacity of crystalline lens, Day 6: Day 6 = 3 days after restart of culture with 30 mM galactose and PPAR activator; for Percentage of opacity of crystalline lens, Day 3: Day 3 = 3 days in 30 mM galactose medium, before addition of PPAR activator; for effect on the percentage of opacity of the crystalline lens (conclusion from Table 1): ex vivo, low concentration
Experimental: In Example 2, effects of each agent were tested with use of ex-vivo diabetic cataract models using galactose-containing media, in a similar manner to Example 1.
as §1
The isolated crystalline lenses were cultured with use of a medium obtained by adding 30 mM of galactose to an M199 medium (available from SIGMA). After that, the crystalline lenses were cultured with use of a medium obtained by adding 30 mM of galactose and a PPAR activator to an M199 medium.
as §2
First, 3 days after the start of the culture of the crystalline lenses using the medium obtained by adding 30 mM of galactose to an M199 medium (available from SIGMA), the crystalline lenses were removed from the medium and observed by microscopy under a microscope SZX12 (available from Olympas).
After the microscopy, a PPAR activator was added to the medium, and the culture of the crystalline lenses was restarted. 3 days after the restart of the culture, the crystalline lenses were removed from the medium and observed again by microscopy under the microscope SZX12 (available from Olympas). Note that, for the purpose of clarifying the effects of the PPAR activator, control crystalline lenses were cultured again using a medium having no PPAR activators added thereto.
The images obtained by the microscopy were imported into image processing software (Image J), and the number of pixels was analyzed. In this way, the total area of the crystalline lens and the area of the opaque area were calculated. The percentage of opacity of the crystalline lens was calculated using the following equation.
Percentage of opacity of crystalline lens (%)=100×{(area of opaque area of crystalline lens)/(total area of crystalline lens)}

[3] = test system: in-vivo diabetic cataract models raised on galactose feed; experiment: In vivo study: in-vivo diabetic cataract models raised on galactose feed, instillation to the eye; conditions: for Percentage of opacity of crystalline lens, Left eye: instillation to left eye four times a day for 1 week, feed containing 25% galactose; for effect on the area of the opaque area of the crystalline lens in vivo (conclusion from Table 2): left eye versus DMSO right eye
Experimental: In Example 3, effects of each agent were tested with use of in-vivo diabetic cataract models raised on galactose feed.
For the purpose of inducing cataract, a 3-week-old SD rat (available from Sankyo Labo Service Corporation) was raised for 1 week on feed containing 25% galactose. Concurrently, during the feeding period, ophthalmic agents were administered by instillation to both eyes of the rat every day (four times a day). The components of the ophthalmic agents were as follows: dimethyl sulfoxide (DMSO; administered as a control) for the right eye; and DMSO containing a PPAR activator for the left eye. On the last day of the feeding period, the crystalline lenses were isolated from the right and left eyes of the rat, and observed by microscopy.
The type of PPAR activator administered to the left eye and its concentration in Example 3 are as follows.
The total area of the crystalline lens, the area of the opaque area of the crystalline lens, and the percentage of opacity of the crystalline lens were calculated in the same manner as described in Example 2.

Row | Compound | Percentage of opacity of crystalline lens, Day 6 ([2]; 25 μM) | Percentage of opacity of crystalline lens, Day 6 ([2]; 100 μM) | effect on the percentage of opacity of the crystalline lens (conclusion from Table 1) [2] | Percentage of opacity of crystalline lens, Day 3 ([2]; lens later given 25 μM) | Percentage of opacity of crystalline lens, Day 3 ([2]; lens later given 100 μM) | Percentage of opacity of crystalline lens, Left eye ([3]; 200 mM in DMSO) | effect on the area of the opaque area of the crystalline lens in vivo (conclusion from Table 2) ([3]; 200 mM in DMSO) | also measured
1 | CC(C)(Oc1ccc(CCNC(=O)c2ccc(Cl)cc2)cc1)C(=O)O [Bezafibrate, 2-[4-[2-[(4-chlorobenzoyl)amino]ethyl]phenoxy]-2-methylpropanoic acid] | – | – | – | – | – | – | – | effect on opacity of the cortex of the crystalline lens (microscopy) [1]: have the effect of therapeutic treatment of cataract after its development; Percentage of opacity of crystalline lens, Day 6 ([2]; 200 μM): 28.0%; Percentage of opacity of crystalline lens, Day 3 ([2]; lens later given 200 μM): 27.1%
2 | CC(C)(Oc1ccc(C2CC2(Cl)Cl)cc1)C(=O)O (stereo not drawn) [Ciprofibrate, 2-[4-(2,2-dichlorocyclopropyl)phenoxy]-2-methylpropanoic acid] | 15.7% | 2.0% | have the effect of reducing the percentage of opacity of the crystalline lens even when used at low concentration | 17.5% | 16.7% | 30.2% | have the effect of reducing the area of the opaque area of the crystalline lens in vivo | –
3 | CCOC(=O)C(C)(C)Oc1ccc(Cl)cc1 [Clofibrate, ethyl 2-(4-chlorophenoxy)-2-methylpropanoate] | 27.3% | 5.7% | – | 9.7% | 7.6% | – | – | –
4 | CC(C)(Oc1ccc(Cl)cc1)C(=O)OCCOC(=O)c1cccnc1 [Etofibrate, 2-[2-(4-chlorophenoxy)-2-methylpropanoyl]oxyethyl pyridine-3-carboxylate] | 25.2% | 3.2% | – | 16.8% | 11.4% | – | – | Percentage of opacity of crystalline lens, Left eye ([3]; 140 mM in DMSO): 42.8%
5 | CC(C)OC(=O)C(C)(C)Oc1ccc(C(=O)c2ccc(Cl)cc2)cc1 [Fenofibrate, propan-2-yl 2-[4-(4-chlorobenzoyl)phenoxy]-2-methylpropanoate] | – | – | – | – | – | – | – | effect on opacity of the cortex of the crystalline lens (microscopy) [1]: have the effect of therapeutic treatment of cataract after its development
6 | Cc1ccc(C)c(OCCCC(C)(C)C(=O)O)c1 [Gemfibrozil, 5-(2,5-dimethylphenoxy)-2,2-dimethylpentanoicacid] | 8.2% | – | have the effect of reducing the percentage of opacity of the crystalline lens even when used at low concentration | 13.8% | – | 40.4% | have the effect of reducing the area of the opaque area of the crystalline lens in vivo | Percentage of opacity of crystalline lens, Day 6 ([2]; 0.8 μM): 10.3%; Percentage of opacity of crystalline lens, Day 3 ([2]; lens later given 0.8 μM): 15.4%
7 | CCc1ccc(CCOc2ccc(CC3SC(=O)NC3=O)cc2)nc1 (stereo not drawn) [Pioglitazone, 5-[[4-[2-(5-ethylpyridin-2-yl)ethoxy]phenyl]methyl]-1,3-thiazolidine-2,4-dione] | – | – | – | – | – | 44.2% | did not show the effect of reducing the area of the opaque area of the crystalline lens in vivo | –
8 | CN(CCOc1ccc(CC2SC(=O)NC2=O)cc1)c1ccccn1 (stereo not drawn) [Rosiglitazone, 5-[[4-[2-[methyl(pyridin-2-yl)amino]ethoxy]phenyl]methyl]-1,3-thiazolidine-2,4-dione] | – | – | have the effect of reducing the percentage of opacity of the crystalline lens even when used at low concentration | – | – | 30.6% | have the effect of reducing the area of the opaque area of the crystalline lens in vivo | Percentage of opacity of crystalline lens, Day 6 ([2]; 20 μM): 20.9%; Percentage of opacity of crystalline lens, Day 6 ([2]; 80 μM): 2.2%; Percentage of opacity of crystalline lens, Day 3 ([2]; lens later given 20 μM): 22.8%; Percentage of opacity of crystalline lens, Day 3 ([2]; lens later given 80 μM): 15.6%
